Measurements taken from patent publication US7230018B2, “Substituted propane-1,3-diamine derivatives and the pharmaceutical use thereof” (Gruenenthal GmbH, priority 2001, dated 2007).

test system: phenylquinone-induced writhing in the mouse; test: phenylquinone-induced writhing test in the mouse; format: in vivo; conditions: male NMRI mice, 10 mg/kg intravenously, phenylquinone intraperitoneally 10 minutes after test substance, writhing counted 5 to 20 minutes after phenylquinone, hydrochloride
Procedure: Testing of Analgesia in the Writhing Test in the Mouse
The investigation for analgesic activity was carried out in the phenylquinone-induced writhing in the mouse (modified by I. C. Hendershot and J. Forsaith (1959) J. Pharmacol. Exp. Ther. 125, 237-240). Male NMRI mice weighing 25 to 30 g were employed for this. Groups of 10 animals per substance dose received 0.3 ml/mouse of a 0.02% aqueous solution of phenylquinone (phenylbenzoquinone, Sigma, Deisenhofen; preparation of the solution with the addition of 5% ethanol and storage in a water bath at 45° C.) administered intraperitoneally 10 minutes after intravenous administration of the test substances. The animals were placed individually in observation cages. The number of pain-induced stretching movements (so-called writhing reactions=straightening of the body with stretching of the hind extremities) was counted by means of a push-button counter 5 to 20 minutes after the administration of phenylquinone. Animals which received only physiological saline solution were also run as a control. All the substances were tested in the standard dosage of 10 mg/kg. The percentage inhibition (% inhibition) of the writhing reaction by a substance was calculated according to the following formula: […]

SMILES | % Inhibition of the writhing reaction (dosage in mg/kg intravenously)
CN(C)C(c1cccnc1)C1CCCCC1NC(=O)c1ccccc1.Cl (stereo not drawn) [Example 1, (syn,syn)-N-[2-(dimethylaminopyridin-3-ylmethyl)cyclohexyl]benzamide hydrochloride] | 54 (10) %
CN(C)C(c1cccnc1)C1CCCCC1NC(=O)c1ccccc1F.Cl (stereo not drawn) [Example 2, (syn,syn)-N-[2-(dimethylaminopyridin-3-ylmethyl)cyclohexyl]-2-fluorobenzamide hydrochloride] | 67 (10) %
CN(C)C(c1cccnc1)C1CCCCC1NC(=O)c1ccccc1Cl.Cl (stereo not drawn) [Example 3, (syn,syn)-2-chloro-N-[2-(dimethylaminopyridin-3-ylmethyl)cyclohexyl]-benzamide hydrochloride] | 85 (10) %
Cc1ccccc1C(=O)NC1CCCCC1C(c1cccnc1)N(C)C.Cl (stereo not drawn) [Example 4, (syn,syn)-N-[2-(dimethylaminopyridin-3-ylmethyl)cyclohexyl]-2-methylbenzamide hydrochloride] | 34 (10) %
CN(C)C(c1cccnc1)C1CCCCC1NC(=O)c1ccccc1.Cl (stereo not drawn) [Example 5, (anti,anti)-N-[2-(dimethylaminopyridin-3-ylmethyl)cyclohexyl]-benzamide hydrochloride] | 49 (10) %
CN(C)C(c1cccnc1)C1CCCCC1NC(=O)c1ccccc1F.Cl (stereo not drawn) [Example 6, (anti,anti)-N-[2-(dimethylaminopyridin-3-ylmethyl)cyclohexyl]-2-fluorobenzamide hydrochloride] | 62 (10) %
CN(C)C(c1cccnc1)C1CCCCC1NC(=O)c1ccccc1Cl.Cl (stereo not drawn) [Example 7, (anti,anti)-2-chloro-N-[2-(dimethylaminopyridin-3-ylmethyl)cyclohexyl]benzamide hydrochloride] | 56 (10) %
Cc1ccccc1C(=O)NC1CCCCC1C(c1cccnc1)N(C)C.Cl (stereo not drawn) [Example 8, (anti,anti)-N-[2-(dimethylaminopyridin-3-ylmethyl)cyclohexyl]-2-methylbenzamide hydrochloride] | 40 (10) %
CC(=O)NC1CCCCC1C(c1cccnc1)N(C)C.Cl (stereo not drawn) [Example 9, (syn,syn)-N-[2-(dimethylaminopyridin-3-ylmethyl)cyclohexyl]acetamide hydrochloride] | 75 (10) %
CC(=O)NC1CCCCC1C(c1cccnc1)N(C)C.Cl (stereo not drawn) [Example 10, (anti,anti)-N-[2-(dimethylaminopyridin-3-ylmethyl)cyclohexyl]acetamide hydrochloride] | 59 (10) %
